Experimental findings from ChEMBL document CHEMBL5257151, “Design, synthesis, and pharmacological evaluation of N-(3-carbamoyl-1H-pyrazol-4-yl)-1,3-oxazole-4-carboxamide derivatives as interleukin-1 receptor-associated kinase 4 inhibitors with reduced potential for cytochrome P450 1A2 induction” (Bioorg Med Chem, 2023) are described below.

Data set [1] in a line: Inhibition of IL-1beta stimulated IL-6 production in human A549 cells pre-incubated for 1 hr followed by overnight stimulation by ELISA analysis. In kind it is functional, cell-based.
For data set [2], the system named is CYP1A2. Put plainly: Induction of CYP1A2 mRNA expression in human HepaRG cells assessed as fold change at 30 uM incubated for 48 hrs. It counts as ADME, cell-based. The following applies: read-out: FC.
In data set [3] the target is T1, Interleukin-1 receptor-associated kinase 4 (Homo sapiens, UniProt Q9NWZ3).
T1 sequence (Q9NWZ3 whole entry): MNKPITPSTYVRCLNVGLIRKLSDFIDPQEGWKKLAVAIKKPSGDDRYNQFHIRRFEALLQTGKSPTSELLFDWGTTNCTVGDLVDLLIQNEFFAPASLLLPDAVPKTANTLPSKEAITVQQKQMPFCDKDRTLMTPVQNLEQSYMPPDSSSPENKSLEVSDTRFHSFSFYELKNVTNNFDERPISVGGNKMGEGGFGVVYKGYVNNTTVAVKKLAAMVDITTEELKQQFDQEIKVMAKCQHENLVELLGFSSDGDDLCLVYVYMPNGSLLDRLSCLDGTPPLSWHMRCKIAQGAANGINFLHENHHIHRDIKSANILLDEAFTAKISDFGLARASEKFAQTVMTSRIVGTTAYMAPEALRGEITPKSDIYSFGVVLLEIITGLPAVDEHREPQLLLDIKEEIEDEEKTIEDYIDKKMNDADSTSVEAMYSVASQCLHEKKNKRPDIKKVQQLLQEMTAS
In words: Inhibition of human IRAK4 using biotinylated FGLARFSRFAGSSPSQSSMVARTQTVRGT peptide as substrate incubated for 1 hr in presence of ATP by ELISA assay. A general note: An ELISA detects its analyte on a solid surface through an enzyme-linked reagent.

Data set [4] deals with CYP1A2. Put plainly: Induction of CYP1A2 mRNA expression in human HepaRG cells assessed as fold change at 15 uM incubated for 48 hrs. It counts as ADME, cell-based. The following applies: read-out: FC.
For data set [5], the target named is T2, CYP1A2 (Homo sapiens, UniProt P05177).
T2 sequence (P05177 whole entry): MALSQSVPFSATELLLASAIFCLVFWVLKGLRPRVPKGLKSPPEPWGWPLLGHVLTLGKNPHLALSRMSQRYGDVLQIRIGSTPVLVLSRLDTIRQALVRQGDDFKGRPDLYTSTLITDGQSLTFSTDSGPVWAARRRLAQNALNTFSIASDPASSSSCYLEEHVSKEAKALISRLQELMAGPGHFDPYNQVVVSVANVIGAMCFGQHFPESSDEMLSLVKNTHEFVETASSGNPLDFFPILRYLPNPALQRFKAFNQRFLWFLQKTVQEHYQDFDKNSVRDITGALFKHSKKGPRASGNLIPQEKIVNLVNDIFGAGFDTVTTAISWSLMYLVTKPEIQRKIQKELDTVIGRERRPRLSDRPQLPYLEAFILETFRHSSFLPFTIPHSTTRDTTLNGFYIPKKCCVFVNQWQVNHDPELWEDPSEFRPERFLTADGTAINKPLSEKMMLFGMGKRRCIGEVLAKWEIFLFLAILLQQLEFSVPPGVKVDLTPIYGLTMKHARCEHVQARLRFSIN
Put plainly: Reversible inhibition of CYP1A2 in human liver microsomes assessed as residual activity at 5 uM using phenacetin as substrate preincubated for 30 mins followed by substrate addition measured after 20 mins by LC-MS/MS analysis relative to control. It counts as ADME, Microsome. The following applies: probe phenacetin, time 50 min, read-out: Activity. A general note: Liver microsomes are vesicles of endoplasmic reticulum, rich in cytochrome P450 enzymes.

The target of data set [6] is T3, CYP3A4 (Homo sapiens, UniProt P08684). In words: Reversible inhibition of CYP3A4 in human liver microsomes assessed as residual activity at 5 uM using midazolam as substrate preincubated for 30 mins followed by substrate addition measured after 20 mins by LC-MS/MS analysis relative to control. It counts as ADME, Microsome. As to conditions: probe midazolam, time 50 min, read-out: Activity.
T3 sequence (P08684 whole entry): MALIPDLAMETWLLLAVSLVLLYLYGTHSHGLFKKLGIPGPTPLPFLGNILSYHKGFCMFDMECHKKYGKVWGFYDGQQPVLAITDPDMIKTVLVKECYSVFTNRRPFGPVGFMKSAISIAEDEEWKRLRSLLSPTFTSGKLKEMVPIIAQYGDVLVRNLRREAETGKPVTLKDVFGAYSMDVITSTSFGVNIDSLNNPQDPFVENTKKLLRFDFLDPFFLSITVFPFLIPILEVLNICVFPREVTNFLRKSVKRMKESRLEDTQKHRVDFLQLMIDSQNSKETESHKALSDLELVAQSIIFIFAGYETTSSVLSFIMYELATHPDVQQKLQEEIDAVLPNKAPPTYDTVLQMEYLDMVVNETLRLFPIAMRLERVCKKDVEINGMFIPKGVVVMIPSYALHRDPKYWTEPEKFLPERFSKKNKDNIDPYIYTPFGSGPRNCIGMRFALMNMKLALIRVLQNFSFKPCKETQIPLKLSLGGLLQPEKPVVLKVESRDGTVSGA

Data set [7] concerns the target T3, CYP3A4. In words: Time dependent inhibition of CYP3A4 in human liver microsomes assessed as residual activity at 5 uM using midazolam as substrate preincubated for 30 mins followed by substrate addition measured after 20 mins by LC-MS/MS analysis relative to control. In kind it is ADME, Microsome. The following applies: probe midazolam, read-out: Activity.
The test system of data set [8] is CYP1A2. Put plainly: Induction of CYP1A2 mRNA expression in human HepaRG cells assessed as fold change at 5 uM incubated for 48 hrs. In kind it is ADME, cell-based. The following applies: read-out: FC.
Data set [9] has as its target CYP2C9 (Homo sapiens, UniProt P11712). Put plainly: Reversible inhibition of CYP2C9 in human liver microsomes assessed as residual activity at 5 uM using diclofenac as substrate preincubated for 30 mins followed by substrate addition measured after 20 mins by LC-MS/MS analysis relative to control. As to conditions: probe diclofenac, time 50 min, read-out: Activity. It counts as ADME, Microsome.

The target of data set [10] is T4, CYP2C8 (Homo sapiens, UniProt P10632).
T4 sequence (P10632 whole entry): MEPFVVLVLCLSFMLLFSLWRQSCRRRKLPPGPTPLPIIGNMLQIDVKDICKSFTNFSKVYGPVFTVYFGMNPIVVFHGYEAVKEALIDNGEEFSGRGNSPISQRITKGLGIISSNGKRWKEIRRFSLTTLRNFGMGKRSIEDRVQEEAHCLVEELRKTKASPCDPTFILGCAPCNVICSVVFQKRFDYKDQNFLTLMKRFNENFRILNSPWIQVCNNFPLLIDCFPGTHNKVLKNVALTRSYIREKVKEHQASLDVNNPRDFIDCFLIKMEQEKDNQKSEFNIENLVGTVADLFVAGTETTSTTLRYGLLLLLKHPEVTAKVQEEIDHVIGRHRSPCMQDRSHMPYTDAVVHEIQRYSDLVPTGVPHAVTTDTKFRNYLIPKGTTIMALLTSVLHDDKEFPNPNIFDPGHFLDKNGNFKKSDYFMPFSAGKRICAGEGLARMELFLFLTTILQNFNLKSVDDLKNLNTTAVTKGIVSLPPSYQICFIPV
In words: Reversible inhibition of CYP2C8 in human liver microsomes assessed as residual activity at 5 uM using amodiaquine as substrate preincubated for 30 mins followed by substrate addition measured after 20 mins by LC-MS/MS analysis relative to control. In kind it is ADME, Microsome. The following applies: probe amodiaquine, time 50 min, read-out: Activity.

Data set [11] deals with CYP1A2. Put plainly: Induction of CYP1A2 mRNA expression in human HepaRG cells assessed as fold change at 10 uM incubated for 48 hrs. The following applies: read-out: FC. It counts as ADME, cell-based.
For data set [12], the system named is CYP1A2. Put plainly: Induction of CYP1A2 mRNA expression in human HepaRG cells assessed as fold change at 7.5 uM incubated for 48 hrs. In kind it is ADME, cell-based. As to conditions: read-out: FC.

SMILES strings stand for the structures.

CYP2C9, sequence (P11712 whole entry): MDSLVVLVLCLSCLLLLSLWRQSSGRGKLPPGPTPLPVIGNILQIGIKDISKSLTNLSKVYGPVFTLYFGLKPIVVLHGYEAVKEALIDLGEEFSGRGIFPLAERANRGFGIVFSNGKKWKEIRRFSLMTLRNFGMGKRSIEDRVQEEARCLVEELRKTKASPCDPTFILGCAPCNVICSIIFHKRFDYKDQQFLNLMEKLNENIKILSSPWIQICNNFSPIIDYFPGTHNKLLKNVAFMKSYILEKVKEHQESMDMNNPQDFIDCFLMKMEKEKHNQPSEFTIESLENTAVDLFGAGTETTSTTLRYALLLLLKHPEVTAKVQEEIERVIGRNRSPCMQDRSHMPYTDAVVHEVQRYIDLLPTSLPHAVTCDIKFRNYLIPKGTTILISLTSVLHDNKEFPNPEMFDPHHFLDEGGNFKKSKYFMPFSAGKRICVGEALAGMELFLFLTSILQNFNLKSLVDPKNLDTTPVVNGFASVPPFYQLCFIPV

On to `Cc1cc(-c2nc(C(=O)Nc3cn(C4CCS(=O)(=O)CC4)nc3C(N)=O)co2)ccn1`, for which, in data set [1], the IC50 (usually the concentration at which inhibition is half-maximal) came to 1600 nM. For the same compound, the fold induction at 48 h, 30 µM in data set [2] is 3.5.

Consider `Cc1cc(-c2nc(C(=O)Nc3c[nH]nc3C(N)=O)co2)ccn1`, for which the IC50 in data set [3] was 120 nM.

As for `NC(=O)c1nn(C2CCOCC2)cc1NC(=O)c1coc(-c2ccncc2F)n1`, in data set [3], the IC50 worked out at 82 nM.

`CCc1cc(-c2nc(C(=O)Nc3cn(C4CCOCC4)nc3C(N)=O)co2)ccn1`: the 50% inhibitory concentration (IC50) in data set [3] came out at 14 nM.

Regarding `Cc1cc(-c2nc(C(=O)Nc3cn(CC(C)C)nc3C(N)=O)co2)ccn1`, the fold induction at 48 h, 15 µM in [4] stood at 4. Also, the IC50 in data set [3] came to 48 nM.

Consider `CCn1cc(NC(=O)c2coc(-c3ccnc(C)c3)n2)c(C(N)=O)n1`, for which the activity at 20 min, 5 µM came out at 47% in data set [5]; 100% in data set [6]; 108% in data set [7]; 98% in data set [9]; 103% in [10]. Moreover, in data set [3], the concentration for half-maximal inhibition (IC50) was found to be 16 nM. Further, the fold induction at 48 h, 5 µM in [8] came to 16.

Consider `NC(=O)c1nn(C2CCOCC2)cc1NC(=O)c1coc(-c2ccnc(C3CC3)c2)n1`, for which the half-maximal inhibitory concentration (IC50) in data set [3] was 67 nM.

Take `Cc1cc(-c2ccc(C(=O)Nc3cn(C4CCOCC4)nc3C(N)=O)o2)ccn1`: the 50% inhibitory concentration (IC50) in data set [3] worked out at 13 nM.

Take `NC(=O)c1nn(C2CCOCC2)cc1NC(=O)c1coc(-c2ccc(F)cc2)n1`: in data set [3], the IC50 stood at 26 nM.

`COCCn1cc(NC(=O)c2coc(-c3ccnc(C)c3)n2)c(C(N)=O)n1`: in data set [11], the fold induction at 48 h, 10 µM came out at 15. Moreover, the IC50 in data set [3] was found to be 18 nM.

Take `CCn1cc(NC(=O)c2csc(-c3ccncc3)n2)c(C(N)=O)n1`: the activity at 20 min, 5 µM is 4% in data set [5]; 74% in data set [6]; 78% in data set [7]; 56% in data set [9]; 70% in [10]. Moreover, the concentration for half-maximal inhibition (IC50) in data set [3] stood at 20 nM.

Turning to `Cc1cc(-c2nc(C(=O)Nc3cn(C4CCN(C)CC4)nc3C(N)=O)co2)ccn1`, the fold induction at 48 h, 15 µM in data set [4] came to 3.6. Also, the figures for the 50% inhibitory concentration (IC50) in [1] and in data set [3] were 450 nM and 18 nM, respectively.

As to `CCCCn1cc(NC(=O)c2coc(-c3ccnc(C)c3)n2)c(C(N)=O)n1`, in data set [3], the IC50 was found to be 25 nM. Moreover, the fold induction at 48 h, 5 µM in data set [8] was 8.9.

For `Cc1cc(-n2ccc(C(=O)Nc3cn(C4CCOCC4)nc3C(N)=O)n2)ccn1`, the IC50 in [3] came to 24 nM.

As for `CC(=O)N1CCC(n2cc(NC(=O)c3coc(-c4ccnc(C)c4)n3)c(C(N)=O)n2)CC1`, the fold induction at 48 h, 15 µM in [4] is 3.2. The values for the half-inhibitory concentration (IC50) in data set [1] and in data set [3] were 460 nM and 17 nM, respectively.

In the case of `Cc1cc(-c2nc(C(=O)Nc3cn(C)nc3C(N)=O)co2)ccn1`, the fold induction at 48 h, 7.5 µM in [12] turned out to be 21. Besides, in data set [3], the IC50 was 16 nM.

Take `Cc1cc(-c2nc(C(=O)Nc3cn(C4CCOC4)nc3C(N)=O)co2)ccn1` (centres undefined): the half-maximal inhibitory concentration (IC50) in [3] stood at 30 nM. The fold induction at 48 h, 30 µM in data set [2] was found to be 10.

Regarding `CCn1cc(NC(=O)c2coc(-c3ccncc3)n2)c(C(N)=O)n1`, the activity at 20 min, 5 µM in [5] was 6%; in data set [6], 70%; in data set [7], 89%; in data set [9], 59%; in data set [10] it was 103%.

Consider `Cc1cc(-c2nc(C(=O)Nc3cn(CC4(C)COC4)nc3C(N)=O)co2)ccn1`, for which the 50% inhibitory concentration (IC50) in [3] is 150 nM.

For `Cn1cc(-c2nc(C(=O)Nc3cn(C4CCOCC4)nc3C(N)=O)co2)ccc1=O`, the IC50 in data set [3] came out at 32 nM.

`Cc1cc(-c2nc(C(=O)Nc3cn(CC4CCOC4)nc3C(N)=O)co2)ccn1` (centres undefined): the fold induction at 48 h, 15 µM in data set [4] was 4.5. The IC50 in data set [3] was determined as 34 nM.

Take `Cc1cc(-c2ncc(C(=O)Nc3cn(C4CCOCC4)nc3C(N)=O)o2)ccn1`: the half-inhibitory concentration (IC50) in data set [3] amounted to 80 nM.

As to `NC(=O)c1nn(C2CCOCC2)cc1NC(=O)c1coc(-c2ccnc(CO)c2)n1`, the half-inhibitory concentration (IC50) in [3] was 52 nM.
